Source: patent US5556859A, “N-(4-pyrimidinyl)amide pesticides” (DowElanco, priority 1994, dated 1996)

Experiments:
[1] = tested on: aster leafhopper (Macrosteles fascifrons); test: whole plant or invertebrate; details: 24 h, read-out: percent mortality, ALH
[2] = tested on: tobacco budworm (Heliothis virescens); test: Activity against tobacco budworm (TBW); format: in vivo; details: 144 h, read-out: percent mortality, TBW
Procedure: In conducting evaluations of insecticidal activity, each test compound was formulated as a 400 ppm solution, and this solution was then diluted with water to give lesser concentrations. The 400 ppm solution was prepared by combining 19.2 mL of 0.05% solution of Tween 20 (polyoxyethylene (20) sorbitan monolaurate) in water with a solution of 8 mg of the compound in 0.8 mL of acetone/EtOH (9/1).
Activity against tobacco budworm (Heliothis virescens) was evaluated as follows. A general purpose lepidoptera artificial diet was diluted to half strength with a 5% non nutritive agar. 8 mL of this diet material was dispensed into each one ounce diet cup. One hour prior to treatment 18 to 20 eggs were dispensed onto the diet surface. The cups were then sprayed with formulated material through a flat-fan nozzle. The test was run using concentrations of 400 ppm and 50 ppm. Treated cups were air dried prior to sealing with plastic caps. The cups were held for 6 days at room temperature. Activity was then rated based on the total number of live and dead larvae, and on the size of live larvae.

[3] = tested on: cotton aphid (Aphis gossypii); test: whole plant or invertebrate; details: 72 h, read-out: percent mortality, CA
[4] = tested on: two spotted spider mite (Tetranychus urticae); test: whole plant or invertebrate; details: 72 h, read-out: percent mortality, TSSM
[5] = tested on: German cockroach (Blattella germanicus); test: whole plant or invertebrate; details: 240 h, read-out: percent mortality, GECR
[6] = tested on: peanut root knot nematode (Meloidogyne arenaria); test: whole plant or invertebrate; details: in Arachis hypogaea, read-out: percent mortality, RKN
[7] = tested on: beet armyworm (Spodoptera exiqua); test: whole plant or invertebrate; details: 144 h, read-out: percent mortality, BAW
[8] = tested on: Southern corn rootworm (Diabrotica undecimpuctata howardi Barber); test: whole plant or invertebrate; details: in Zea mays, soil, read-out: percent mortality, SCRW

| SMILES | mortality at 400 ppm [1] [%] | mortality at 400 ppm [2] [%] | mortality at 400 ppm [3] [%] | mortality at 400 ppm [4] [%] | mortality at 400 ppm [5] [%] | mortality at 400 ppm [6] [%] | mortality at 400 ppm [7] [%] | mortality at 24 µg/g [8] [%] |
| --- | --- | --- | --- | --- | --- | --- | --- | --- |
| Cc1nccc(NC(=O)Cc2ccc(Oc3ccc(Cl)cc3)cc2)n1 [Compound 1, 4-(4-chlorophenoxy)phenyl-N-(2-methyl-4-pyrimidinyl)acetamide] | 0 | 100 | 100 | 100 | 100 | 100 | 100 | 100 |
| O=C(Cc1ccc(OCC(F)(F)F)cc1)Nc1ccnc(-c2ccccc2)n1 [Compound 5, 4-(2,2,2-trifluroethoxy)phenyl-N-(2-phenyl-4-pyrimidinyl)acetamide] | 0 | 0 | 0 | 0 | 0 | 0 | 30 | 0 |
| CSc1nccc(NC(=O)Cc2ccc(Oc3ccc(F)cc3)cc2)n1 [Compound 6, 4-(4-fluorophenoxy)phenyl-N-(2-methylthio-4-pyrimidinyl)acetamide] | 100 | 90 | 100 | 0 | 60 | 0 | 100 | 100 |
| O=C(Cc1ccc(Oc2ccc(F)cc2)cc1)Nc1ccnc(-c2ccccc2)n1 [Compound 7, 4-(4-fluorophenoxy)phenyl-N-(2-phenyl-4-pyrimidinyl)acetamide] | 0 | 60 | 100 | 0 | 60 | 0 | 60 | 0 |
| Cc1nccc(NC(=O)Cc2cccc(Oc3ccccc3)c2)n1 [Compound 8, 3-phenoxyphenyl-N-(2-methyl-4-pyrimidinyl)acetamide] | 100 | 0 | 100 | 0 | 40 | 0 | 0 | 0 |
| CCc1nccc(NC(=O)Cc2ccc(OCC(F)(F)F)cc2)n1 [Compound 9, 4-(2,2,2-trifluroethoxy)phenyl-N-(2-ethyl-4-pyrimidinyl)acetamide] | 100 | 100 | 100 | 0 | 0 | 0 | 100 | 0 |
| CCc1nccc(NC(=O)Cc2ccc(Oc3ccc(F)cc3)cc2)n1 [Compound 10, 4-(4-fluorophenoxy)phenyl-N-(2-ethyl-4-pyrimidinyl)acetamide] | 100 | 100 | 100 | 100 | 100 | 90 | 100 | 100 |
| CCc1nccc(NC(=O)Cc2ccc(Oc3ccc(C(F)(F)F)cc3)cc2)n1 [Compound 11, 4-(4-trifluoromethylphenoxy)phenyl-N-(2-ethyl-4-pyrimidinyl)acetamide] | 80 | 100 | 100 | 100 | 100 | 80 | 100 | 100 |
| CCc1nccc(NC(=O)Cc2ccc(Oc3ccc(C#N)cc3)cc2)n1 [Compound 12, 4-(4-cyanophenoxy)phenyl-N-(2-ethyl-4-pyrimidinyl)acetamide] | 100 | 100 | 100 | 100 | 100 | 100 | 100 | 100 |
| CCc1nccc(NC(=O)Cc2ccc(Oc3ncc(C(F)(F)F)cc3F)cc2)n1 [Compound 32, 4-(3-fluoro-5-trifluromethyl-2-pyridinyloxy)phenyl-N-(2-ethyl-4-pyrimidinyl)acetamide] |  | 100 | 100 | 100 | 60 | 100 | 100 | 0 |
| CCCCCCCCC(C)C(=O)Nc1ccnc(CC)n1 (stereo not drawn) [Compound 33, N-(2-ethyl-4-pyrimidinyl)-2 methyldecamide] |  | 0 | 80 | 40 | 20 | 0 | 0 | 0 |
| CCCCCCCCCCCCCCCCCC(=O)Nc1ccnc(CC)n1 [Compound 34] |  | 0 | 0 | 0 | 20 | 0 | 0 | 0 |
| CCc1nccc(NC(=O)Cc2ccc(OCC(F)(F)F)cn2)n1 [Compound 35, 5-(2,2,2-trifluoromethoxy)-2-pyridinyl-N-(2-ethyl-4-pyrimidinyl)acetamide] |  | 60 | 100 | 100 | 80 | 100 | 100 | 100 |
| CCc1nccc(NC(=O)Cc2ccc(Oc3ccc(S(C)(=O)=O)cn3)cc2)n1 [Compound 36, 4-(5-methylsulfonyl-2-pyridinyloxy)phenyl-N-(2-ethyl-4-pyrimidinyl)acetamide] |  | 100 | 40 | 0 | 40 | 100 | 100 | 0 |
| CCc1nccc(NC(=O)Cc2ccc(Oc3ccc(Cl)cn3)cc2)n1 [Compound 37, 4-(5-chloro-2-pyridinyloxy)phenyl-N-(2-ethyl-4-pyrimidinyl)acetamide] |  | 100 | 0 | 0 | 100 | 0 | 100 | 0 |
| COCc1nccc(NC(=O)Cc2ccc(OCC(F)(F)F)cc2)n1 [Compound 38, 4-(2,2,2-trifluroethoxy)phenyl-N-(2-(methoxymethyl)-4-pyrimidinyl)acetamide] |  | 0 | 0 | 0 | 0 | 0 | 0 | 0 |
| COCc1nccc(NC(=O)Cc2ccc(Oc3ccc(F)cc3)cc2)n1 [Compound 39, 4-(4-fluorophenoxy)phenyl-N-(2-(methoxymethyl)-4-pyrimidinyl)acetamide] |  | 100 | 100 | 100 | 100 | 100 | 100 | 0 |
| CCCCc1nccc(NC(=O)Cc2ccc(Oc3ccc(C(F)(F)F)cc3)cc2)n1 [Compound 65, 4-(4-trifluoromethylphenoxy)phenyl-N-(2-butyl-4-pyrimidinyl)acetamide] | 0 | 100 | 100 | 100 | 100 |  | 100 | 0 |
| O=C(Cc1ccc(Oc2ccc(C(F)(F)F)cc2)cc1)Nc1ccnc(C2CCC2)n1 [Compound 66, 4-(4-trifluoromethylphenoxy)phenyl-N-(2-cyclobutyl-4-pyrimidinyl)acetamide] | 40 | 100 | 100 | 100 | 100 |  | 100 | 100 |
| Cc1nccc(NC(=O)Cc2ccc(Oc3cccc(C(F)(F)F)c3)cc2)n1 [Compound 69, 4-(3-trifluoromethylphenoxy)phenyl-N-(2-methyl-4-pyrimidinyl)acetamide] | 40 | 80 | 0 | 0 | 0 |  | 80 | 0 |
| CC(C)c1nccc(NC(=O)Cc2ccc(Oc3ccc(C(F)(F)F)cc3)cc2)n1 [Compound 72, 4-(4-trifluoromethylphenoxy)phenyl-N-(2-(1-methylethyl)-4-pyrimidinyl)acetamide] |  | 100 | 100 | 100 | 100 | 100 | 0 | 100 |
